The nature of series [1]: Plasma rivaroxaban pharmacokinetics: single 20 mg rivaroxaban alone (Period I) or with 360 mg verapamil at steady state (Period III), subjects with mild renal impairment or normal renal function. The procedure: These patients are subjected to various one-time and longitudinal pharmacokinetic (PK) and pharmacodynamic (PD) analyses. […] Cmax and AUC values for each dose are calculated. Patients also undergo a general physical exam to determine overall health and well-being.
All the pharmacokinetic and pharmacodynamics analyses are repeated on patients receiving this treatment.
Subjects with either mild renal impairment or with normal renal function were enrolled.
Renal function of the subjects was determined by measuring creatinine clearance (CLcr) rates. Subjects who had CLcr≥90 mL/min were categorized as having normal renal function whereas subjects who had CLcr 50-79 mL/min were categorized as mildly renally impaired. Blood samples were collected and processed according to the standard protocols.

For a further series, the system named is Prothrombin Time. Put plainly: Prothrombin time (STA Neoplastin method) after rivaroxaban with or without verapamil. It counts as in vivo, human. From the text:
As used herein, the term “prothrombin time” (PT) refers to a blood test that measures how long it takes blood to clot. In some embodiments, a prothrombin time test can be used to measure of a patient's haemostasis. In some embodiments, PT can be used to measure the effectiveness or exposure to a blood clotting drug. Persons having skill in the art sometimes interchangeably refer to a PT test as an INR. […] Additionally, PT measurements are subject to variability based on the test reagent and laboratory test ranges determined by each institution.
Additional pharmacodynamic metrics are also gathered for each patient, including, but not limited to: prothrombin time (using the STA® Neoplastin® method) and Factor Xa activity. […] Renal Function and non-vitamin K oral anticoagulants in comparison with warfarin on safety and efficacy outcomes in atrial fibrillation patients: a systemic review and meta-regression analysis.
Blood samples were collected and processed according to the standard protocols.

The next series addresses T1, Factor Xa (Homo sapiens, UniProt P00742).
T1 construct: host or cells: human subjects
Put plainly: Factor Xa activity after rivaroxaban with or without verapamil. It counts as in vivo. An excerpt: Additional pharmacodynamic metrics are also gathered for each patient, including, but not limited to: prothrombin time (using the STA® Neoplastin® method) and Factor Xa activity. Protocols for each of these analyses have been described in Nielsen et al 2015. Renal Function and non-vitamin K oral anticoagulants in comparison with warfarin on safety and efficacy outcomes in atrial fibrillation patients: a systemic review and meta-regression analysis.

A short description of series [2]: Risk of major bleeding from steady state rivaroxaban AUC (FIG. 5). It counts as in vivo, human. The procedure:
See Center for Drug Evaluation and Research, Application No. 022406Orig1s000, Clinical Pharmacology and Biopharmaceutics Review(s), at page 36, which is hereby incorporated by reference in its entirety.
Group “c” represents the average of the three subjects in Group “b” who had the highest AUCinf, which was about 8,143 μg·hr/L. The risk of major bleeding of the subjects in Group “c” were at least 5 times higher compared to the populations in Group “a” and not even visible on this scale.

A short description of series [3]: Reported rivaroxaban serious bleeding adverse events by concomitant drug. It is filed as in vivo, human. An excerpt:
8, 2015, American Heart Association, Scientific Sessions 2015, and published at http://www.abstractsonline.com/pp8/#!/3795/presentation/37668).

A short description of series [4]: Drug-drug interaction study of oral verapamil and 0.5-2.5 mg rivaroxaban (Example 4). Particulars: 0.5-2.5 mg rivaroxaban with verapamil (100-480 mg). It counts as in vivo, human. The procedure: A control study is performed to determine the presence of DDIs in patients treated with oral verapamil and rivaroxaban (without aspirin). […]. A representative example of a sample study is found in Example 1.

A short description of series [5]: Drug-drug interaction study of oral verapamil, aspirin and rivaroxaban (Example 5). It is filed as in vivo, human. The conditions noted are these: for Risk of major bleeding: e.g. The procedure: Additional studies are performed to determine the presence of DDIs in patients treated with oral verapamil, aspirin, and rivaroxaban. […] A representative example of such a study is found in Example 1. […] Additionally, these studies show a linear relationship between the pharmacokinetic and the pharmacodynamics of rivaroxaban in subjects with normal renal function and renal insufficiency.

The conditions of series [6]: cited from earlier work.
For series [7] the following is noted: in vivo; cited from earlier work.
The conditions of series [8]: cited from earlier work. The source holds these as a separate data set.
The conditions of series [9]: cited from earlier work. The source holds these as a separate data set.
A further series deals with P-gp (Homo sapiens, UniProt P08183). Particulars: in vitro; cited from earlier work.
The mark [10] stands for this setting: Example 1: 20 mg rivaroxaban + 360 mg verapamil vs rivaroxaban alone.
Where [11] appears, read: Example 4: 0.5-2.5 mg rivaroxaban with verapamil (100-480 mg).

The structures appear in SMILES notation. “And” between values parts separate entries of the source, which are not always exact repeats. Equal values may be shown once. Read-outs that look alike come from different tables or passages of the source.

T1 sequence (P00742 235-488 limits assumed): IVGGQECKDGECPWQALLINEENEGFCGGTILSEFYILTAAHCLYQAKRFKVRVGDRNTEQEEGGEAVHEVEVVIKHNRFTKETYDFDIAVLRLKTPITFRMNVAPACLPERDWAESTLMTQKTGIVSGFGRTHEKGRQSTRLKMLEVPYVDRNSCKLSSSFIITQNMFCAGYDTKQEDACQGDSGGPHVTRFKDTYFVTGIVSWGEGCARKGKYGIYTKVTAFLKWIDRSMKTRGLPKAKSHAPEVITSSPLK
T1 sequence (P00742 41-179 partner limits assumed): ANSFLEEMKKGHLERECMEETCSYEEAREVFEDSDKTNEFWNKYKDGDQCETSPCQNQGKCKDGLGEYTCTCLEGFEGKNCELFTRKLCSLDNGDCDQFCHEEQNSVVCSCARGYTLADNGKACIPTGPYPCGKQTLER
P-gp, sequence (P08183 whole entry): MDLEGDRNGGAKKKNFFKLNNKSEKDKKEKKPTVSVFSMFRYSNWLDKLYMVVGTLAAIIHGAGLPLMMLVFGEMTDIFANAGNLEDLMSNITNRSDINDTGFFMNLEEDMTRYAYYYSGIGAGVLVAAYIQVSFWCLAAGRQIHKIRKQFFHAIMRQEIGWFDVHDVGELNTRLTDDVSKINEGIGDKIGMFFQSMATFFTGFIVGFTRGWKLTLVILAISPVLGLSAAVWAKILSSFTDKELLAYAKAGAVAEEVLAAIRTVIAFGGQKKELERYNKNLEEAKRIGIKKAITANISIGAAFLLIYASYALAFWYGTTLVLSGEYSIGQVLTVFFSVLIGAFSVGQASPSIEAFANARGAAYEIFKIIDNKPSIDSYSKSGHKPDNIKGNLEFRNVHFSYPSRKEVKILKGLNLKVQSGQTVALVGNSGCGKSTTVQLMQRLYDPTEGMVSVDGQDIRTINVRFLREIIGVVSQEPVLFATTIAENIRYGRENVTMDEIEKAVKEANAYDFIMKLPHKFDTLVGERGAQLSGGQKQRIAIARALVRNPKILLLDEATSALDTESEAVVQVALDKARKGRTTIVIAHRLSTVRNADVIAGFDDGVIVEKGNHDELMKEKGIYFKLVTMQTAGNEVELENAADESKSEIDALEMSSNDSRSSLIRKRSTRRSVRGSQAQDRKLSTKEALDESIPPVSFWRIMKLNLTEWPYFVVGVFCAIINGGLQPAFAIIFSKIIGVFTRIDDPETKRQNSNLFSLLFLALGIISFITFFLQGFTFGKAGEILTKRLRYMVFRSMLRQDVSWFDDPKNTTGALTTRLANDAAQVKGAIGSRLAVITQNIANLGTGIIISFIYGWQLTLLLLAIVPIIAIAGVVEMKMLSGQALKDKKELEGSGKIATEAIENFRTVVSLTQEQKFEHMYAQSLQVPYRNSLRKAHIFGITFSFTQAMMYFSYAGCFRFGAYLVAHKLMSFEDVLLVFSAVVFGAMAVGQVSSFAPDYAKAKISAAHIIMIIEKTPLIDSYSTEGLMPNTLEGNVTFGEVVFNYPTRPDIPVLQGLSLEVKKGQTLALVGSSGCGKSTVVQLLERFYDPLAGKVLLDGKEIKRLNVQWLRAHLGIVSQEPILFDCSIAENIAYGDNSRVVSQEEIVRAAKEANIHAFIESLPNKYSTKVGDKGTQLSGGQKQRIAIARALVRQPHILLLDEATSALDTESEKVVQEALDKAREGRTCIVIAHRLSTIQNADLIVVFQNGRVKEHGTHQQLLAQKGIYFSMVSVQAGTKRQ

With `O=C(NC[C@H]1CN(c2ccc(N3CCOCC3=O)cc2)C(=O)O1)c1ccc(Cl)s1` [Rivaroxaban], the CL/F/kg in series [1] (Period I, rivaroxaban alone, Group 2 normal renal function (N = 13), outlier sample excluded, arithmetic mean) is 0.108 (L/hr)/kg; in [1] (Period III, rivaroxaban and verapamil, Group 2 normal renal function (N = 10), individual subjects) it was 0.0664 (L/hr)/kg and 0.0705 (L/hr)/kg and 0.0839 (L/hr)/kg; in series [1] (Period III, rivaroxaban and verapamil, Group 2 normal renal function (N = 10), median) it was 0.0664 (L/hr)/kg. In addition, the t1/2 in [1] (human, in vivo, 20 mg) was 9.44 h. Also, the “PT on concomitant verapamil” value in the series with Prothrombin Time (setting [10]) and with Prothrombin Time (setting [11]) was “prolonged PT” each time. Further, in the series on Prothrombin Time (subjects with normal renal function and mild renal insufficiency, Day 1 and Day 15, FIGS. 1 and 2), the “Relationship between plasma concentrations of rivaroxaban and PT (pharmacokinetics vs pharmacodynamics)” value is reported as “clear linear relationship”. In addition, the “Factor Xa inhibition on concomitant verapamil” value at Factor Xa (setting [10]) and at Factor Xa (setting [11]) was “increased Factor Xa inhibition” throughout. In addition, the “Risk of major bleeding, Group a” value in series [2] (fed subjects, single 20 mg rivaroxaban, AUC about 2,026 μg·hr/L, FIG. 5) is recorded as “about 3%”. Besides, the “Risk of major bleeding compared to Group a, Group b” value in series [2] (mild renal impairment, single 20 mg rivaroxaban and 360 mg verapamil) was 2.5 times higher. Moreover, the “Risk of major bleeding compared to Group a, Group c” value in series [2] (three subjects of Group b with the highest AUCinf) was “at least 5 times higher”. The “Association with increased serious bleeding adverse events” value in [3] (concomitant administration of rivaroxaban and erythromycin) was “not associated with increased serious bleeding adverse events”. For the same molecule, the “Share of the reported rivaroxaban serious bleeding adverse events” value in [3] (patients concomitantly administered verapamil and rivaroxaban, who account for only 22% of the total population receiving rivaroxaban) turned out to be 30%. The “Rivaroxaban plasma concentrations on concomitant verapamil” value in [4] is “higher rivaroxaban plasma concentrations”. For the same molecule, the “Risk of major bleeding compared to subjects not concomitantly administered verapamil” value in series [5] (concomitant oral verapamil, aspirin and rivaroxaban) is on record as “significantly higher risk of major bleeding”. Besides, the “Risk of major bleeding” value is “not more than 4.5%” in series [5] (single 1.75 mg rivaroxaban and verapamil (e.g., 360 mg), Example 5, from about 1.5-2.0%); “not more than 4.5%” in series [5] (single 2.5 mg rivaroxaban, verapamil (e.g., 360 mg) and aspirin (100 mg), about 3%). In addition, the “Geometric mean AUC of rivaroxaban for 2.5 mg dose” value in [6] (2.5 mg rivaroxaban, no verapamil) is 165.4 μg·h/L to 551.9. The “Geometric mean AUC of rivaroxaban for 5 mg dose” value in series [6] (5 mg rivaroxaban, no verapamil) was 1064.25 µg·h/L. Moreover, in series [6] (fed subjects across studies 10989 and 11938, single 20 mg rivaroxaban, FIG. 5), the “Average AUC (average geometric mean), Group a” value is reported as “approximately 2,026 μg·hr/L”. Moreover, the “Upper bound of the 90% confidence interval of the steady state AUC (Label A)” value in series [6] (patients administered 20 mg of rivaroxaban, FIG. 4) is “about 3,792 μg·hr/L”. The “Upper boundary of the 90% confidence interval of the steady state AUC (Label C)” value in series [6] (single 20 mg dose of rivaroxaban after a meal (study 10989), FIG. 4) is “about 2,448 μg·hr/L”. The “Dose eliminated in urine as unprocessed active drug” value in series [7] was around 36%. The “Dose eliminated through active renal secretion” value in series [7] is 30%. In series [7], the “Dose eliminated through glomerular filtration” value is 6%. The “Dose subject to metabolic degradation via the liver's oxidative and hydrolytic pathways” value in [7] is “two-thirds”. Moreover, in series [7], the “Share of rivaroxaban clearance accounted for by CYP3A4” value is “approximately 18%”. For the same molecule, the “Risk of major bleeding events compared to aspirin alone” value in series [8] (2.5 mg rivaroxaban (BID) and aspirin) is “increase the risk of major bleeding events”; in series [8] (5 mg dose of rivaroxaban alone) it was “increase the risk of major bleeding events”. The “Clinical outcomes (stroke, myocardial infarction, cardiovascular death) compared to aspirin alone and rivaroxaban 5 mg BID alone” value in series [8] (rivaroxaban 2.5 mg BID and aspirin, patients with cardiovascular disease) is on record as “reduce several clinical outcomes”.

With `CN1CCc2nc(C(=O)N[C@@H]3C[C@@H](C(=O)N(C)C)CC[C@@H]3NC(=O)C(=O)Nc3ccc(Cl)cn3)sc2C1` [edoxaban], in series [9] (Mendell et al.), the “Bleeding or other adverse events on co-administration with verapamil” value was “did not lead to any increased bleeding or other adverse events”.

For the molecule `CC[C@H]1OC(=O)[C@H](C)[C@@H](O[C@H]2C[C@@](C)(OC)[C@@H](O)[C@H](C)O2)[C@H](C)[C@@H](O[C@@H]2O[C@H](C)C[C@H](N(C)C)[C@H]2O)[C@](C)(O)C[C@@H](C)C(=O)[C@H](C)[C@@H](O)[C@]1(C)O` [erythromycin], the “Eliminated renally (unchanged)” value in [7] is 2-15%. Further, on P-gp, the “Inhibition of P-gp-mediated efflux of rivaroxaban across cell monolayers” value is on record as “did not inhibit”.

Turning to `COc1ccc(NC(=O)c2ccc(C(=N)N(C)C)cc2)c(C(=O)Nc2ccc(Cl)cn2)c1` [betrixaban], the “Exposure on concomitant use of P-gp inhibitors, such as verapamil” value in series [9] (BEVYXXA label) is given as “increased exposure to betrixaban”.

The values are drawn from patent US10688075B2 (Morgandane Scientific, LLC, priority 2018, dated 2020).
